In brackets after ≈: the same amount, converted by molar mass. Read-outs that look alike come from different tables or passages of the source.
Key:
[1] = system: E. coli 0-111; test: Antibacterial spectra, agar dilution method; type: cell-based; settings: Escherichia coli, 0111, E. coli 0-111, Table 11
Description: (§1) (mcg/ml., agar dilution method)
as §1
(§2) (mcg/ml, agar dilution method)
(§3) (mcg./ml., agar dilution method)

[2] = system: E. coli NIHJ JC-2; test: Antibacterial spectra, agar dilution method; type: cell-based; settings: Escherichia coli
Description: as §1, §1, §2, §3

[3] = system: S. aureus 1840; test: Antibacterial spectra, agar dilution method; type: cell-based
Description: as §1, §1, §2, §3

[4] = system: S. aureus 209P; test: Antibacterial spectra, agar dilution method; type: cell-based; settings: Staphylococcus aureus, 209P, read-out: Antibacterial spectra, S. aureus 209P, Table 11
Description: as §1, §1, §2, §3

[5] = system: E. coli T-7; test: Antibacterial spectra, agar dilution method; type: cell-based; settings: Escherichia coli
Description: (§4) |(mcg./ml., agar dilution method)

[6] = system: P. vulgaris IFO 3988; test: Antibacterial spectra, agar dilution method; type: cell-based; settings: Proteus vulgaris
Description: as §4

[7] = system: K. pneumoniae DT; test: Antibacterial spectra, agar dilution method; type: cell-based; settings: Klebsiella pneumoniae, Table 11
[8] = system: P. morganii Eb53; test: Antibacterial spectra, agar dilution method; type: cell-based; settings: Morganella morganii
Description: as §2, §3

[9] = system: Escherichia coli 0111; test: Protective Effect on Infected Mice; type: in vivo; settings: Escherichia coli, 0111, sc, 168 h, male ICR/SLC mice, i.p. E. coli 0111, single subcutaneous dose immediately after challenge, 7 days
Description: Protective Effect (ED50 * , mg/kg) on Infected Mice
*Test animals: male mice (ICR/SLC) 5 mice per group per single dose
Infection: intraperitoneally with Escherichia coli 0111
Administration: a single subcutaneous dose immediately after challenge
Observation period: 7 days
*Test animals: male mice (ICR/SLC) 5 mice per group single dose

[10] = NIHJJC2, E. coli NIHJ JC-2, Table 11, read-out: Antibacterial spectra
[11] = Staphylococcus aureus, 1840, read-out: Antibacterial spectra, S. aureus 1840, Table 11
[12] = T7, E. coli T-7, agar dilution method, Table 11, read-out: Antibacterial spectra
[13] = IFO3988, P. vulgaris IFO 3988, agar dilution method, Table 11, read-out: Antibacterial spectra
[14] = P. morganii Eb53, agar dilution method, Table 11, read-out: Antibacterial spectra
[15] = NIHJJC2, read-out: Antibacterial spectra, E. coli NIHJ JC-2, Table 11
[16] = EB53, read-out: Antibacterial spectra
[17] = Staphylococcus aureus, S. aureus 1840, Table 11, read-out: Antibacterial spectra

SMILES	MIC [1]	MIC [2, 10]	MIC [3, 11]	MIC [4]	MIC [5, 12]	MIC [6, 13]	MIC [7]	MIC [8, 14]	MIC [2, 15]	MIC [8, 16]	MIC [3, 17]	ED50 ([9]; Table 12, read-out: Protective Effect (ED50) on Infected Mice)	MIC ([5]; T7, read-out: Antibacterial spectra)	MIC ([6]; IFO3988, read-out: Antibacterial spectra)	ED50 ([9]; Table 14, read-out: ED50)
CC(=O)CSc1nnc(SCC2=C(C(=O)O)N3C(=O)C(NC(=O)Cc4csc(N)n4)C3SC2)s1 (stereo not shown) [Compound 23]	0.39 µg/mL (≈ 0.698 µM)	1.56 µg/mL (≈ 2.79 µM)	0.78 µg/mL (≈ 1.4 µM)	≤ 0.2 µg/mL	25 µg/mL (≈ 44.7 µM)	0.39 µg/mL (≈ 0.698 µM)	≤ 0.2 µg/mL	3.13 µg/mL (≈ 5.6 µM)							
CN(C)CCn1nnnc1SCC1=C(C(=O)O)N2C(=O)C(NC(=O)Cc3csc(N)n3)C2SC1 (stereo not shown) [Compound 28]	≤ 0.2 µg/mL		1.56 µg/mL (≈ 2.97 µM)	0.39 µg/mL (≈ 0.742 µM)	3.13 µg/mL (≈ 5.95 µM)	0.78 µg/mL (≈ 1.48 µM)	≤ 0.2 µg/mL		0.39 µg/mL (≈ 0.742 µM)	≤ 0.2 µg/mL					
Cc1nnc(SCC2=C(C(=O)O)N3C(=O)C(NC(=O)Cc4csc(=O)[nH]4)[C@H]3SC2)s1 (stereo partly shown) [Compound 55, 7-[2-(2-oxo-4-thiazolin-4-yl)acetamido]-3-(5-methyl-1,3,4-thiadiazol-2-yl)thiomethyl-3-cephem-4-carboxylic acid]	0.78 µg/mL (≈ 1.61 µM)	1.56 µg/mL (≈ 3.21 µM)	0.78 µg/mL (≈ 1.61 µM)	0.2 µg/mL (≈ 0.412 µM)			1.56 µg/mL (≈ 3.21 µM)								
Cc1nnc(SCC2=C(C(=O)O)N3C(=O)C(NC(=O)Cc4csc(N)n4)C3SC2)o1 (stereo not shown) [Compound 38]	0.39 µg/mL (≈ 0.832 µM)	1.56 µg/mL (≈ 3.33 µM)	0.78 µg/mL (≈ 1.66 µM)	0.39 µg/mL (≈ 0.832 µM)			0.39 µg/mL (≈ 0.832 µM)	25 µg/mL (≈ 53.4 µM)							
Nc1nc(CC(=O)NC2C(=O)N3C(C(=O)O)=C(CSc4nnc[nH]4)CSC23)cs1 (stereo not shown) [Compound 41]	0.78 µg/mL (≈ 1.72 µM)		0.78 µg/mL (≈ 1.72 µM)	0.39 µg/mL (≈ 0.86 µM)			0.2 µg/mL (≈ 0.441 µM)	25 µg/mL (≈ 55.1 µM)	0.78 µg/mL (≈ 1.72 µM)						
Nc1nc(CC(=O)NC2C(=O)N3C(C(=O)O)=C(CSc4nnc(NCCS(=O)(=O)O)s4)CSC23)cs1 (stereo not shown) [Compound 22]	≤ 0.2 µg/mL			0.78 µg/mL (≈ 1.31 µM)	25 µg/mL (≈ 42.1 µM)	≤ 0.2 µg/mL	≤ 0.2 µg/mL		0.78 µg/mL (≈ 1.31 µM)	0.78 µg/mL (≈ 1.31 µM)	3.13 µg/mL (≈ 5.27 µM)				
CN(C)CC(=O)Nc1nnc(SCC2=C(C(=O)O)N3C(=O)C(NC(=O)Cc4csc(N)n4)C3SC2)s1 (stereo not shown) [Compound 7]	≤ 0.2 µg/mL			0.78 µg/mL (≈ 1.37 µM)	25 µg/mL (≈ 43.8 µM)	0.39 µg/mL (≈ 0.683 µM)	≤ 0.2 µg/mL		0.78 µg/mL (≈ 1.37 µM)	12.5 µg/mL (≈ 21.9 µM)	3.13 µg/mL (≈ 5.48 µM)				
CC(=O)OCCSc1nnc(SCC2=C(C(=O)[O-])N3C(=O)C(NC(=O)Cc4csc(N)n4)[C@H]3SC2)s1.[Na+] (stereo partly shown) [Compound 11, sodium 7-[2-(2-aminothiazol-4-yl)acetamido]-3-[2-(2-acetoxyethylthio)-1,3,4-thiadiazol-5-yl]thiomethyl-3-cephem-4-carboxylate]												< 0.625 mg/kg			
Cn1c(N)nnc1SCC1=C(C(=O)O)N2C(=O)C(NC(=O)Cc3csc(N)n3)C2SC1 (stereo not shown) [Compound 31]	≤ 0.1 µg/mL		1.56 µg/mL (≈ 3.23 µM)	0.78 µg/mL (≈ 1.62 µM)	3.13 µg/mL (≈ 6.49 µM)	0.2 µg/mL (≈ 0.414 µM)	≤ 0.1 µg/mL		0.2 µg/mL (≈ 0.414 µM)	1.56 µg/mL (≈ 3.23 µM)					
Cn1nnnc1SCC1=C(C(=O)O)N2C(=O)C(NC(=O)Cc3csc(=S)[nH]3)C2SC1 (stereo not shown) [Compound 64]	1.56 µg/mL (≈ 3.21 µM)		1.56 µg/mL (≈ 3.21 µM)	< 0.78 µg/mL			< 0.78 µg/mL								
Nc1nc(CC(=O)NC2C(=O)N3C(C(=O)O)=C(CSc4nnc(N)s4)CSC23)cs1 (stereo not shown) [Compound 4]	0.1 µg/mL (≈ 0.206 µM)		0.78 µg/mL (≈ 1.61 µM)	0.2 µg/mL (≈ 0.412 µM)	100 µg/mL (≈ 206 µM)	0.2 µg/mL (≈ 0.412 µM)	0.2 µg/mL (≈ 0.412 µM)	50 µg/mL (≈ 103 µM)	0.78 µg/mL (≈ 1.61 µM)						
CN(C)C(=O)Cc1nnc(SCC2=C(C(=O)[O-])N3C(=O)C(NC(=O)Cc4csc(N)n4)[C@H]3SC2)s1.[Na+] (stereo partly shown) [Compound 8, sodium 7-[2-(2-aminothiazol-4-yl)acetamido]-3-[2-(N,N-dimethylcarbamoylmethyl)-1,3,4-thiadiazol-5-yl]thiomethyl-3-cephem-4-carboxylate]	≤ 0.2 µg/mL		0.78 µg/mL	0.39 µg/mL			≤ 0.2 µg/mL		0.78 µg/mL	< 0.2 µg/mL			12.5 µg/mL	0.39 µg/mL	
Cc1nnc(SCC2=C(C(=O)O)N3C(=O)C(NC(=O)Cc4csc(N)n4)C3SC2)n1C (stereo not shown) [Compound 42]	0.1 µg/mL (≈ 0.208 µM)		1.56 µg/mL (≈ 3.24 µM)	0.39 µg/mL (≈ 0.81 µM)			0.1 µg/mL (≈ 0.208 µM)		0.2 µg/mL (≈ 0.415 µM)	1.56 µg/mL (≈ 3.24 µM)					0.38 mg/kg

— patent US4421912A, “Cephalosporin derivatives” (Takeda Chemical Industries, Ltd., priority 1973, dated 1983)
